Source: patent US5393869A, “Parathyroid hormone derivatives” (Takeda Chemical Industries, Ltd., priority 1990, dated 1995)
Starred links: 1 amine or outer side, 2 acyl side, 3 side chain; linkers in the order of their positions; H or OH if unused. Non-standard residues stand in square brackets, D forms with d. Residues, ends and D or L forms follow the SMILES beside them. X1 = O=C([C@H](Cc1c(C2SCCS2)[nH]c2ccccc12)N[*:1])[*:2]

molecular target: T1, PTH receptor (Mus musculus, UniProt P41593); test: cAMP production by PTH (1-34) analogues in MC3T3-EI osteoblast-like cells; assay type: cell-based; conditions: cAMP production, 0.01-100 nM analogue, room temperature 30 minutes, hPTH(1-34) = 1.00
T1 construct: a mouse cranial bone-derived osteoblast-like cell strain, MC3T3-EI cells, cultivated on a 96-well multiplate; endogenous in cells; host or cells: MC3T3-E1 mouse osteoblast-like cells
T1 sequence (P41593 27-591): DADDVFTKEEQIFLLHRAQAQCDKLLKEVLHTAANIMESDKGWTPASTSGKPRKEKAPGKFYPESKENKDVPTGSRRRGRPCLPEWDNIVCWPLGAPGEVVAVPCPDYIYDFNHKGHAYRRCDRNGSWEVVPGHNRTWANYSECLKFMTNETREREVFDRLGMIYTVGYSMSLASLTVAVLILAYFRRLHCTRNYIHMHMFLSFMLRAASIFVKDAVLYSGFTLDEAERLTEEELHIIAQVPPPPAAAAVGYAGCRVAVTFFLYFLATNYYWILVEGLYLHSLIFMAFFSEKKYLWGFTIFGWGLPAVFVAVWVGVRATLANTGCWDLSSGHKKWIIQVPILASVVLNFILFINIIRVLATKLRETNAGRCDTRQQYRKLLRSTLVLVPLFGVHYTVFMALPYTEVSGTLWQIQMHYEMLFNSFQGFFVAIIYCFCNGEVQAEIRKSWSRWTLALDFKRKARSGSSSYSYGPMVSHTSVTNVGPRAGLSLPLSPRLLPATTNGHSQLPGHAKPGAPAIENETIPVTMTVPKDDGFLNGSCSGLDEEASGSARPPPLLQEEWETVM
Method: The biological activity of the peptide analogues was evaluated by a modified version of the method reported by Shigeno et al. in The Journal of Biological Chemistry 263, 18369-18377 (1988). A culture solution (Hank's solution, containing 20 mM N-2-hydroxyethylpiperazine-N'-2-ethanesulfonic acid (HEPES), 0.1% bovine serum albumin and 0.5 mM isobutylmethyl-xanthine) containing 0.01, 0.1, 1, 10 or 100 nM analogue was added in an amount of 100 μto a mouse cranial bone-derived osteoblast-like cell strain, MC3T3-EI cells, cultivated on a 96-well multiplate (Nunclon, Nunc), followed by reaction at room temperature for 30 minutes. After addition of 100 μof 0.2N hydrochloric acid, the mixture was immersed in boiling water for 2.5 minutes, and cyclic adenosine monophosphate (cAMP) produced by a PTH receptor was extracted from the cells. The total cAMP in the culture solution and the cells was assayed using a commercial radioimmunoassay kit (cyclic AMP [^125 I] kit "Du Pont-Daiichi", Daiichi Kagaku Yakuhin).

SMILES | Biological Activity (Represented by Relative Activity to hPTH(1-34))
CC[C@H](C)[C@H](NC(=O)[C@H](CCC(=O)O)NC(=O)[C@H](CO)NC(=O)[C@@H](NC(=O)[C@@H](N)CO)C(C)C)C(=O)N[C@@H](CCC(N)=O)C(=O)N[C@@H](CC(C)C)C(=O)N[C@@H](CCSC)C(=O)N[C@@H](Cc1c[nH]cn1)C(=O)N[C@@H](CC(N)=O)C(=O)N[C@@H](CC(C)C)C(=O)N[C@H](Cc1ccc2ccccc2c1)C(=O)N[C@@H](CCCCN)C(=O)N[C@@H](Cc1c[nH]cn1)C(=O)N[C@@H](CC(C)C)C(=O)N[C@@H](CC(N)=O)C(=O)N[C@@H](CO)C(=O)N[C@@H](CCSC)C(=O)N[C@@H](CCC(=O)O)C(=O)N[C@@H](CCCNC(=N)N)C(=O)N[C@H](C(=O)N[C@@H](CCC(=O)O)C(=O)N[C@@H](Cc1c[nH]c2ccccc12)C(=O)N[C@@H](CC(C)C)C(=O)N[C@@H](CCCNC(=N)N)C(=O)N[C@@H](CCCCN)C(=O)N[C@@H](CCCCN)C(=O)N[C@@H](CC(C)C)C(=O)N[C@@H](CCC(N)=O)C(=O)N[C@@H](CC(=O)O)C(=O)N[C@H](C(=O)N[C@@H](Cc1c[nH]cn1)C(=O)N[C@@H](CC(N)=O)C(=O)N[C@@H](Cc1ccccc1)C(N)=O)C(C)C)C(C)C [(3-(2-naphthyl)-D-Ala^12)hPTH(1-34)NH2] | 0.9
CC[C@H](C)[C@H](NC(=O)[C@H](CCC(=O)O)NC(=O)[C@H](CO)NC(=O)[C@@H](NC(=O)[C@@H](N)CO)C(C)C)C(=O)N[C@@H](CCC(N)=O)C(=O)N[C@@H](CC(C)C)C(=O)N[C@@H](CCSC)C(=O)N[C@@H](Cc1c[nH]cn1)C(=O)N[C@@H](CC(N)=O)C(=O)N[C@@H](CC(C)C)C(=O)N[C@H](CO)C(=O)N[C@@H](CCCCN)C(=O)N[C@@H](Cc1c[nH]cn1)C(=O)N[C@@H](CC(C)C)C(=O)N[C@@H](CC(N)=O)C(=O)N[C@@H](CO)C(=O)N[C@@H](CCSC)C(=O)N[C@@H](CCC(=O)O)C(=O)N[C@@H](CCCNC(=N)N)C(=O)N[C@H](C(=O)N[C@@H](CCC(=O)O)C(=O)N[C@@H](Cc1c[nH]c2ccccc12)C(=O)N[C@@H](CC(C)C)C(=O)N[C@@H](CCCNC(=N)N)C(=O)N[C@@H](CCCCN)C(=O)N[C@@H](CCCCN)C(=O)N[C@@H](CC(C)C)C(=O)N[C@@H](CCC(N)=O)C(=O)N[C@@H](CC(=O)O)C(=O)N[C@H](C(=O)N[C@@H](Cc1c[nH]cn1)C(=O)N[C@@H](CC(N)=O)C(=O)N[C@@H](Cc1ccccc1)C(N)=O)C(C)C)C(C)C [[D-Ser^12] hPTH (1-34)NH2, (D-Ser^12)hPTH(1-34)NH2] | 0.8
CC[C@H](C)[C@H](NC(=O)[C@H](CCC(=O)O)NC(=O)[C@H](CO)NC(=O)[C@@H](NC(=O)[C@@H](N)CO)C(C)C)C(=O)N[C@@H](CCC(N)=O)C(=O)N[C@@H](CC(C)C)C(=O)N[C@@H](CC(C)C)C(=O)N[C@@H](Cc1c[nH]cn1)C(=O)N[C@@H](CC(N)=O)C(=O)N[C@@H](CC(C)C)C(=O)NCC(=O)N[C@@H](CCCCN)C(=O)N[C@@H](Cc1c[nH]cn1)C(=O)N[C@@H](CC(C)C)C(=O)N[C@@H](CC(N)=O)C(=O)N[C@@H](CO)C(=O)N[C@@H](CCSC)C(=O)N[C@@H](CCC(=O)O)C(=O)N[C@@H](CCCNC(=N)N)C(=O)N[C@H](C(=O)N[C@@H](CCC(=O)O)C(=O)N[C@@H](Cc1c[nH]c2ccccc12)C(=O)N[C@@H](CC(C)C)C(=O)N[C@@H](CCCNC(=N)N)C(=O)N[C@@H](CCCCN)C(=O)N[C@@H](CCCCN)C(=O)N[C@@H](CC(C)C)C(=O)N[C@@H](CCC(N)=O)C(=O)N[C@@H](CC(=O)O)C(=O)N[C@H](C(=O)N[C@@H](Cc1c[nH]cn1)C(=O)N[C@@H](CC(N)=O)C(=O)N[C@@H](Cc1ccccc1)C(N)=O)C(C)C)C(C)C [[Leu^8] hPTH (1-34)NH2, (Leu^8)hPTH(1-34)NH2] | 0.5
CC[C@H](C)[C@H](NC(=O)[C@H](CCC(=O)O)NC(=O)[C@H](CO)NC(=O)[C@@H](NC(=O)[C@@H](N)CO)C(C)C)C(=O)N[C@@H](CCC(N)=O)C(=O)N[C@@H](CC(C)C)C(=O)N[C@@H](CCSC)C(=O)N[C@@H](Cc1c[nH]cn1)C(=O)N[C@@H](CC(N)=O)C(=O)N[C@@H](Cc1ccc2ccccc2c1)C(=O)NCC(=O)N[C@@H](CCCCN)C(=O)N[C@@H](Cc1c[nH]cn1)C(=O)N[C@@H](CC(C)C)C(=O)N[C@@H](CC(N)=O)C(=O)N[C@@H](CO)C(=O)N[C@@H](CCSC)C(=O)N[C@@H](CCC(=O)O)C(=O)N[C@@H](CCCNC(=N)N)C(=O)N[C@H](C(=O)N[C@@H](CCC(=O)O)C(=O)N[C@@H](Cc1c[nH]c2ccccc12)C(=O)N[C@@H](CC(C)C)C(=O)N[C@@H](CCCNC(=N)N)C(=O)N[C@@H](CCCCN)C(=O)N[C@@H](CCCCN)C(=O)N[C@@H](CC(C)C)C(=O)N[C@@H](CCC(N)=O)C(=O)N[C@@H](CC(=O)O)C(=O)N[C@H](C(=O)N[C@@H](Cc1c[nH]cn1)C(=O)N[C@@H](CC(N)=O)C(=O)N[C@@H](Cc1ccccc1)C(N)=O)C(C)C)C(C)C [[3-(2-naphthyl)-Ala^11] hPTH (1-34)NH2] | 1.7
CC[C@H](C)[C@H](NC(=O)[C@H](CCC(=O)O)NC(=O)[C@H](CO)NC(=O)[C@@H](NC(=O)[C@@H](N)CO)C(C)C)C(=O)N[C@@H](CCC(N)=O)C(=O)N[C@@H](CC(C)C)C(=O)N[C@@H](CCSC)C(=O)N[C@@H](Cc1c[nH]cn1)C(=O)N[C@@H](CC(N)=O)C(=O)N[C@@H](CC(C)C)C(=O)NCC(=O)N[C@@H](CCCCN)C(=O)N[C@@H](Cc1c[nH]cn1)C(=O)N[C@@H](CC(C)C)C(=O)N[C@@H](CC(N)=O)C(=O)N[C@@H](CO)C(=O)N[C@@H](CCSC)C(=O)N[C@@H](CCC(=O)O)C(=O)N[C@@H](CCCNC(=N)N)C(=O)N[C@H](C(=O)N[C@@H](CCC(=O)O)C(=O)N[C@@H](Cc1c[nH]c2ccccc12)C(=O)N[C@@H](CC(C)C)C(=O)N[C@@H](CCCNC(=N)N)C(=O)N[C@@H](CCCCN)C(=O)N[C@@H](CCCCN)C(=O)N[C@@H](CC(C)C)C(=O)N[C@@H](CCC(N)=O)C(=O)N[C@@H](CC(=O)O)C(=O)N[C@H](C(=O)N[C@@H](Cc1c[nH]cn1)C(=O)N[C@@H](CC(N)=O)C(=O)N[C@@H](Cc1ccccc1)C(=O)O)C(C)C)C(C)C [hPTH (1-34), hPTH(1-34), reference compound] | 1.00
CC[C@H](C)[C@H](NC(=O)[C@H](CCC(=O)O)NC(=O)[C@H](CO)NC(=O)[C@@H](NC(=O)[C@@H](N)CO)C(C)C)C(=O)N[C@@H](CCC(N)=O)C(=O)N[C@@H](CC(C)C)C(=O)N[C@@H](CCSC)C(=O)N[C@@H](Cc1c[nH]cn1)C(=O)N[C@@H](CC(N)=O)C(=O)N[C@@H](Cc1ccccc1)C(=O)NCC(=O)N[C@@H](CCCCN)C(=O)N[C@@H](Cc1c[nH]cn1)C(=O)N[C@@H](CC(C)C)C(=O)N[C@@H](CC(N)=O)C(=O)N[C@@H](CO)C(=O)N[C@@H](CCSC)C(=O)N[C@@H](CCC(=O)O)C(=O)N[C@@H](CCCNC(=N)N)C(=O)N[C@H](C(=O)N[C@@H](CCC(=O)O)C(=O)N[C@@H](Cc1c[nH]c2ccccc12)C(=O)N[C@@H](CC(C)C)C(=O)N[C@@H](CCCNC(=N)N)C(=O)N[C@@H](CCCCN)C(=O)N[C@@H](CCCCN)C(=O)N[C@@H](CC(C)C)C(=O)N[C@@H](CCC(N)=O)C(=O)N[C@@H](CC(=O)O)C(=O)N[C@H](C(=O)N[C@@H](Cc1c[nH]cn1)C(=O)N[C@@H](CC(N)=O)C(=O)N[C@@H](Cc1ccccc1)C(N)=O)C(C)C)C(C)C [[Phe^11] hPTH (1-34)NH2, (Phe^11)hPTH(1-34)NH2] | 1.3
CC[C@H](C)[C@H](NC(=O)[C@H](CCC(=O)O)NC(=O)[C@H](CO)NC(=O)[C@@H](NC(=O)[C@@H](N)CO)C(C)C)C(=O)N[C@@H](CCC(N)=O)C(=O)N[C@@H](CC(C)C)C(=O)N[C@@H](CCSC)C(=O)N[C@@H](Cc1c[nH]cn1)C(=O)N[C@@H](CC(N)=O)C(=O)N[C@@H](CC(C)C)C(=O)NCC(=O)N[C@@H](CCCCN)C(=O)N[C@@H](Cc1c[nH]cn1)C(=O)N[C@@H](CC(C)C)C(=O)N[C@@H](CC(N)=O)C(=O)N[C@@H](CO)C(=O)N[C@@H](CCSC)C(=O)N[C@@H](CCCNC(=N)N)C(=O)N[C@@H](CCCNC(=N)N)C(=O)N[C@@H](CCCNC(=N)N)C(=O)N[C@@H](CCC(=O)O)C(=O)N[C@@H](Cc1c(C2SCCS2)[nH]c2ccccc12)C(=O)N[C@@H](CC(C)C)C(=O)N[C@@H](CCCNC(=N)N)C(=O)N[C@@H](CCCCN)C(=O)N[C@@H](CCCCN)C(=O)N[C@@H](CC(C)C)C(=O)N[C@@H](CCC(N)=O)C(=O)N[C@@H](CC(=O)O)C(=O)N[C@H](C(=O)N[C@@H](Cc1c[nH]cn1)C(=O)N[C@@H](CC(N)=O)C(=O)N[C@@H](Cc1ccccc1)C(N)=O)C(C)C [(Arg^19,21,2-(1,3-dithiolan-2-yl)-Trp^23)hPTH(1-34)NH2] (H-SVSEIQLMHNLGKHLNSMRRRE[X1]LRKKLQDVHNF-NH2) | 1.7

same assay, conditions: human PTH (1-34) added as a standard, 0.01-100 nM

SMILES | cAMP production of the standard
CC[C@H](C)[C@H](NC(=O)[C@H](CCC(=O)O)NC(=O)[C@H](CO)NC(=O)[C@@H](NC(=O)[C@@H](N)CO)C(C)C)C(=O)N[C@@H](CCC(N)=O)C(=O)N[C@@H](CC(C)C)C(=O)N[C@@H](CCSC)C(=O)N[C@@H](Cc1c[nH]cn1)C(=O)N[C@@H](CC(N)=O)C(=O)N[C@@H](CC(C)C)C(=O)NCC(=O)N[C@@H](CCCCN)C(=O)N[C@@H](Cc1c[nH]cn1)C(=O)N[C@@H](CC(C)C)C(=O)N[C@@H](CC(N)=O)C(=O)N[C@@H](CO)C(=O)N[C@@H](CCSC)C(=O)N[C@@H](CCC(=O)O)C(=O)N[C@@H](CCCNC(=N)N)C(=O)N[C@H](C(=O)N[C@@H](CCC(=O)O)C(=O)N[C@@H](Cc1c[nH]c2ccccc12)C(=O)N[C@@H](CC(C)C)C(=O)N[C@@H](CCCNC(=N)N)C(=O)N[C@@H](CCCCN)C(=O)N[C@@H](CCCCN)C(=O)N[C@@H](CC(C)C)C(=O)N[C@@H](CCC(N)=O)C(=O)N[C@@H](CC(=O)O)C(=O)N[C@H](C(=O)N[C@@H](Cc1c[nH]cn1)C(=O)N[C@@H](CC(N)=O)C(=O)N[C@@H](Cc1ccccc1)C(=O)O)C(C)C)C(C)C [hPTH (1-34), hPTH(1-34), reference compound] | increase in cAMP production depending on the concentration
